Results reported in PubChem BioAssay (NCI).
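These data come from cells grown in 96-well plates and exposed to compound for 48 hours at five concentrations. TGI marks complete inhibition of growth.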

Key:
Assay in all cases: growth of human tumour cells (NCI), 48 h
786-0 renal = test system: 786-0 renal
A498 renal = test system: A498 renal
A549 NSCLC = test system: A549 NSCLC
CAKI-1 renal = test system: CAKI-1 renal
CCRF-CEM leukemia = test system: CCRF-CEM leukemia
COLO 205 colon = test system: COLO 205 colon
DU-145 prostate = test system: DU-145 prostate
EKVX NSCLC = test system: EKVX NSCLC
HCT-116 colon = test system: HCT-116 colon
HL-60(TB) leukemia = test system: HL-60(TB) leukemia
HOP-62 NSCLC = test system: HOP-62 NSCLC
HOP-92 NSCLC = test system: HOP-92 NSCLC
HS 578T breast = test system: HS 578T breast
HT29 colon = test system: HT29 colon
IGROV1 ovarian = test system: IGROV1 ovarian
K-562 leukemia = test system: K-562 leukemia
KM12 colon = test system: KM12 colon
LOX IMVI melanoma = test system: LOX IMVI melanoma
M14 melanoma = test system: M14 melanoma
MALME-3M melanoma = test system: MALME-3M melanoma
MCF7 breast = test system: MCF7 breast
MDA-MB-231 breast = test system: MDA-MB-231 breast
MDA-MB-435 = test system: MDA-MB-435
MDA-N = test system: MDA-N
MOLT-4 leukemia = test system: MOLT-4 leukemia
NCI-H226 lung = test system: NCI-H226 lung
NCI-H23 lung = test system: NCI-H23 lung
NCI-H460 lung = test system: NCI-H460 lung
NCI-H522 lung = test system: NCI-H522 lung
NCI/ADR-RES ovarian = test system: NCI/ADR-RES ovarian
OVCAR-3 ovarian = test system: OVCAR-3 ovarian
OVCAR-4 ovarian = test system: OVCAR-4 ovarian
OVCAR-5 ovarian = test system: OVCAR-5 ovarian
PC-3 prostate = test system: PC-3 prostate
RPMI-8226 leukemia = test system: RPMI-8226 leukemia
RXF 393 renal = test system: RXF 393 renal
SF-268 CNS = test system: SF-268 CNS
SF-295 CNS = test system: SF-295 CNS
SF-539 CNS = test system: SF-539 CNS
SK-MEL-2 melanoma = test system: SK-MEL-2 melanoma
SK-MEL-5 melanoma = test system: SK-MEL-5 melanoma
SK-OV-3 ovarian = test system: SK-OV-3 ovarian
SN12C renal = test system: SN12C renal
SNB-19 CNS = test system: SNB-19 CNS
SNB-75 CNS = test system: SNB-75 CNS
SR leukemia = test system: SR leukemia
SW-620 colon = test system: SW-620 colon
T-47D breast = test system: T-47D breast
TK-10 renal = test system: TK-10 renal
U251 CNS = test system: U251 CNS
UACC-257 melanoma = test system: UACC-257 melanoma
UACC-62 melanoma = test system: UACC-62 melanoma
UO-31 renal = test system: UO-31 renal

`CC(C)(C)OC(=O)n1cc(C2CNC(=O)C23CCC(=O)N3Cc2ccccc2)c2ccccc21` (stereo not drawn) was tested, and the TGI (786-0 renal) was 44.8 µM, the TGI (A498 renal) was 35.3 µM and the TGI (A549 NSCLC) was 40.4 µM. The TGI (CAKI-1 renal) was greater than 100 µM, the TGI (CCRF-CEM leukemia) was 55.7 µM and the TGI (COLO 205 colon) was 33.4 µM. The TGI (DU-145 prostate) was 55.4 µM, the TGI (EKVX NSCLC) was 54.6 µM and the TGI (HCT-116 colon) was greater than 100 µM. It also gave a TGI (HL-60(TB) leukemia) of 82.5 µM, a TGI (HOP-62 NSCLC) of 57.2 µM and a TGI (HOP-92 NSCLC) of 26.7 µM. The TGI (HS 578T breast) was 86.5 µM, the TGI (HT29 colon) was 37.3 µM and the TGI (IGROV1 ovarian) was 33.6 µM. It also gave a TGI (K-562 leukemia) greater than 100 µM, a TGI (KM12 colon) of 78.3 µM and a TGI (LOX IMVI melanoma) of 44 µM. For the same compound, the TGI (M14 melanoma) was 67.4 µM, the TGI (MALME-3M melanoma) was 42.8 µM and the TGI (MCF7 breast) was 80.3 µM. For the same compound, the TGI (MDA-MB-231 breast) was 39.9 µM, the TGI (MDA-MB-435) was 42.3 µM and the TGI (MDA-N) was 85.5 µM. The TGI (MOLT-4 leukemia) was greater than 100 µM, the TGI (NCI-H226 lung) was 41.4 µM and the TGI (NCI-H23 lung) was 57.1 µM. It also gave a TGI (NCI-H460 lung) of 47.6 µM, a TGI (NCI-H522 lung) of 35 µM and a TGI (NCI/ADR-RES ovarian) greater than 100 µM. It also gave a TGI (OVCAR-3 ovarian) of 46.8 µM, a TGI (OVCAR-4 ovarian) of 36.2 µM and a TGI (OVCAR-5 ovarian) of 40.8 µM. It also gave a TGI (PC-3 prostate) of 79.3 µM, a TGI (RPMI-8226 leukemia) of 40.8 µM and a TGI (RXF 393 renal) of 44.8 µM. The TGI (SF-268 CNS) was greater than 100 µM, the TGI (SF-295 CNS) was 35.3 µM and the TGI (SF-539 CNS) was 38.4 µM. For the same compound, the TGI (SK-MEL-2 melanoma) was 33.4 µM, the TGI (SK-MEL-5 melanoma) was 31.9 µM and the TGI (SK-OV-3 ovarian) was 58.3 µM. The TGI (SN12C renal) was 32.4 µM, the TGI (SNB-19 CNS) was greater than 100 µM and the TGI (SNB-75 CNS) was 38.2 µM. The TGI (SR leukemia) was greater than 100 µM, the TGI (SW-620 colon) was greater than 100 µM and the TGI (T-47D breast) was greater than 100 µM. For the same compound, the TGI (TK-10 renal) was 44.4 µM, the TGI (U251 CNS) was 37.3 µM and the TGI (UACC-257 melanoma) was 65.2 µM. The TGI (UACC-62 melanoma) was 38.7 µM and the TGI (UO-31 renal) was 49 µM.
